Here are results for 2 molecules from patent US10568857B2, “Method of treating renal system damage” (The University of Utah Research Foundation, priority 2008, dated 2020).

Data set [1] concerns BALB/c mice (ADR nephropathy). As to the kind of experiment: Adriamycin (ADR) nephropathy in mice, OA-NO2 pretreatment via osmotic mini-pump. The class given is in vivo, mouse. The note with it: for plasma albumin: control 1.01±0.15; for albuminuria (urinary albumin): control 33.39±3.50. As for the experimental part: Male BABL/C mice were purchased from the Jackson Laboratories (Bar Harbor, Me., USA). Mice were maintained in a temperature-controlled barrier facility with a 12:12-h light-dark cycle and were given free access to standard laboratory chow and tap water. Mice were randomized into three groups: 1) control, 2) Adriamycin (ADR), and 3) ADR+ nitro-oleic acid (OA-NO2). In Group 3, OA-NO2 (dissolved in ethanol) was administered at 5 mg/kg/day via subcutaneously implanted osmotic mini-pump and vehicle (ethanol) was given to the other two groups. This dose was chosen based a previous study (35). After 2 days of pretreatment with OA-NO2, Groups 2 and 3 received a single tail vein injection of ADR at 10 mg/kg. Group 1 received a single tail vein injection of saline. Twenty four-hour urine was collected with using metabolic cages. Seven days after ADR treatment, all mice were killed and kidneys were immediately harvested gene expression or histological analyses. All protocols employing mice were conducted in accordance the principles and guidance of the University of Utah Institutional Animal Care and Committee.
Urine samples were centrifuged for 5 minutes at 10,000 rpm. Blood samples from anesthetized mice were collected by puncturing the vena cava using a 1-ml insulin syringe containing 50 μl of 1 mM EDTA in the absence of protease inhibitors. Urine and plasma albumin was determined using a murine microalbuminuria enzyme-linked immunosorbent assay kit (Cat#1011, EXOCELL). Plasma triglyceride level was determined using a LabAssay Triglyceride ELISA Kit (Cat#290-63701, WAKO). Urine and plasma levels of urea were measured by Urea Nitrogen Direct kit (Cat#0580-250, Stanbio Laboratory), and urine and plasma levels of creatinine were measured by Creatinine Liquicolor kit (Cat#0420-250, Stanbio Laboratory).
Under anesthesia, kidneys were removed and fixed with 4% paraformaldehyde. The tissues were subsequently embedded in paraffin and 4-μm sections were cut and stained with periodic acid Schiff (PAS). Glomerular sclerosis was assessed as follows using a semiquantitative score: grade 0, normal appearance; grade I, involvement of up to 25% of the glomerulus; grade II, involvement of 25 to 50% of the glomerulus; grade III, involvement of 50 to 75% of the glomerulus; grade IV, involvement of 75 to 100% of the glomerulus. A glomerulosclerosis index (GSI) was calculated by multiplying the number of glomeruli with a sclerosis score of I by one, the number with a score of II by two, III by three, and IV by four. These values were summed and divided by the number of glomeruli assessed, including those with a sclerosis score of zero. The SI for each kidney specimen was a sum of the points from 30 glomeruli. Tubulointerstitial injury (defined as tubular atrophy, dilatation, thickening of the basement membrane, protein cast) by semiquantitative analysis. Thirty cortical fields from each animal were examined at ×200 magnification and graded according to a scale of 0 to 4: 0, no tubulointerstitial injury 1, <25% of the tubulointerstitium injured; 2, 25% to 50% of the tubulointerstitium injured; 3, 51% to 75% of the tubulointerstitium injured; and 4, 76% to 100% of the tubulointerstitium injured. All sections were examined in blind manner.
Immunohistochemical staining was performed. Anti-WT1 antibody was purchased from Dako (Mob437, Dako).
Total RNA was isolated using TRIzol (Invitrogen, Carlsbad, Calif.), and first-strand cDNAs were synthesized from 2 μg of total RNA in […] reaction using SuperScript (Invitrogen). The first strand cDNAs served as the template for quantitative PCR performed in Applied Biosystems 7900 Real Time PCR System using SYBR green PCR reagent (Applied Biosystems, Foster City, Calif., USA). The amplification was carried out for 40 cycles with conditions of 15-s denaturation at 95° C. […]

Data set [2] deals with human proximal tubular cells (HK2). It is filed as cell-based. The note with it: pretreatment 1 h with 1.5 μM OA-NO2, then 24 h 1 μM cisplatin. The protocol: FIG. 6. Bar graphs show the effects of nitrated fatty acid OA-NO2 on cisplatin-induced apoptosis in vivo and in vitro. A), Caspase activity in the mouse kidney. N=5-6 in each group. B), Caspase activity in cultured human proximal tubular cells (HK2). Following pretreatment for 1 h with vehicle or 1.5 μM OA-NO2, the cells were exposed for 24 h to 1 μM cisplatin. N=3 in each group. Data are mean±SE. A single dose of i.p. injection of cisplatin induced renal dysfunction as indicated by the marked rise in plasma BUN (FIG. 1), accompanied by severe renal histological abnormalities characterized by distortion of the overall renal morphology, dilation of renal tubules, and appearance of protein cast (FIG. 2).

Data set [3] relates to B6129SF2/J mice (cisplatin-induced toxicity). The data set is described as follows: Effects of OA-NO2 on cisplatin-induced toxicity in mice. It is filed as in vivo, mouse. The conditions noted are these: cisplatin 20 mg/kg i.p. As for the experimental part: FIG. 1. A bar graph showing the plasma concentrations of Blood Urea Nitrogen (BUN) in mice under the conditions indicated. N=5-6. Data are mean±n SE. B6129S2/J mice (male, 3-4-mo-old) received vehicle (Control) or a single i.p. injection of cisplatin alone (20 mg/kg in saline). After 20 min, the cisplatin group was randomly divided to receive an i.p injection of OA-NO2 (400 mg/kg in ethanol) or an equivalent amount of ethanol at 6-h intervals for 48 h.
Male 3-4-month-old B6129SF2/J mice were from Jackson Laboratories (Bar Harbor, Me.). All animals were housed in an air-conditioned room with a 12-hour light/dark cycle. All procedures and protocols were in accordance with guidelines set by the Laboratory Animal Care Committee at the University of Utah.
Protocol for testing effects of OA-NO2 on cisplatin-induced toxicity in B6129SF2/J mice. B6129S2/J mice (male, 3-4-mo-old) received vehicle (saline) or a single i.p. (intraperitoneal) injection of cisplatin alone (20 mg/kg in saline). After 20 minutes, the cisplatin group was randomly divided to receive an i.p. injection of OA-NO2 (400 mg/kg in ethanol) or an equivalent amount of ethanol at 6-hour intervals for 48 hours. The control group also received an i.p. injection of the equivalent amount of ethanol at the same frequencies. At the end of the experiments, under isoflurane anesthesia, blood was withdrawn from the vena cava using 1 cc insulin syringe and kidneys were harvested for analysis of morphology and gene expression.

The mark [4] stands for this setting: OA-NO2 400 mg/kg i.p. at 6-h intervals for 48 h.
[5] abbreviates: OA-NO2 400 mg/kg i.p. at 6-h intervals for 48 h, real time RT-PCR.
The mark [6] stands for this setting: posttreatment OA-NO2 400 mg/kg i.p. at 6-h intervals for 48 h.
The mark [7] stands for this setting: ADR+OA-NO2 group vs ADR, P<0.05.
Setting [8] is: OA-NO2 treatment in ADR mice, P<0.05.
Setting [9] is: OA-NO2 treatment in ADR mice, real-time PCR and Western blotting, P<0.05.

“Also recorded” adds a separate entry of the source.

Consider `COc1cccc2c1C(=O)c1c(O)c3c(c(O)c1C2=O)C[C@@](O)(C(=O)CO)C[C@@H]3O[C@H]1C[C@H](N)[C@H](O)[C@H](C)O1` [ADR, doxorubicin (Adriamycin), reference compound], for which the plasma triglyceride in data set [1] (ADR group (ADR 10 mg/kg alone)) was 396.18 ± 70.94 mg/dL. For the same molecule, the plasma albumin in data set [1] (ADR group (ADR 10 mg/kg alone), day 7) was found to be 0.28 ± 0.08 g/dL. For the same molecule, the “albuminuria (urinary albumin)” value in data set [1] (ADR group (ADR 10 mg/kg tail vein alone), day 5) was 508.89±48.52 μg/24 h. For the same molecule, in data set [1] (ADR mice (ADR 10 mg/kg alone)), the “mice with severe ascites at sacrifice” value is “Ninety”.
Take nitrooleic acid [OA-NO2]: the cisplatin-induced caspase activity entry in data set [2] is reported as “almost completely normalized”. Further, in data set [3] (setting [4]), the “activity of caspase in the mouse kidney” value was “attenuated or completely corrected” and the “kidney thiobarbituric acid-reactive substances (TBARS)” value is on record as “attenuated or completely corrected”. Moreover, the “plasma level of MPO” value in data set [3] (OA-NO2 400 mg/kg i.p. at 6-h intervals for 48 h, EIA) is reported as “reduces; also recorded: attenuated or completely corrected”. Besides, in data set [3] (setting [5]), the “kidney expression of NADPH oxidase subunit gp91phox” value is listed as “attenuated or completely corrected” and the “kidney expression of NADPH oxidase subunit p47phox” value is on record as “attenuated or completely corrected”. Also, in data set [3] (setting [6]), the “plasma BUN (renal function)” value is reported as “improves renal function; also recorded: markedly attenuated” and the “renal histological abnormalities (renal morphology, dilation of tubules, protein cast)” value was “improves renal morphology; also recorded: markedly attenuated”. For the same molecule, the “renal ZO-1 mRNA (qRT-PCR)” value in data set [1] (ADR+OA-NO2 group) is on record as “significant elevation”. In data set [1] (ADR+OA-NO2 group vs ADR group), the “number of WT1-positive cells (podocytes), immunohistochemistry” value was “partially restored”; the “plasma BUN” value is “significantly attenuated”; the plasma creatinine result was “significantly attenuated”. Further, the “renal gp91phox protein (immunoblot)” value in data set [1] (ADR+OA-NO2 group vs ADR, P<0.01) is “further confirmed at the protein level”. Further, in data set [1] (setting [7]), the “renal mRNA expression of gp91phox” value is “the increase was less” and the “renal mRNA expression of p47phox” value is given as “the increase was less”. Moreover, in data set [1] (ADR+OA-NO2 group, OA-NO2 5 mg/kg/day), the plasma triglyceride was determined as 212.70 ± 39.22 mg/dL. Besides, the “albuminuria (urinary albumin)” value in data set [1] (ADR+OA-NO2 group, day 5 after ADR 10 mg/kg i.v., OA-NO2 5 mg/kg/day s.c. mini-pump from 2 days before) worked out at 342.40±33.26 μg/24 h. In data set [1] (ADR+OA-NO2 group, day 7 after ADR, OA-NO2 5 mg/kg/day), the plasma albumin worked out at 0.58 ± 0.13 g/dL. Moreover, the “mice having mild ascites at sacrifice” value in data set [1] (ADR+OA-NO2 mice, OA-NO2 5 mg/kg/day) amounted to 20%. In data set [1] (ADR+OA-NO2 vs ADR, P<0.05), the “glomerulosclerotic index (GSI), PAS staining” value is recorded as “ameliorates glomerulosclerosis; also recorded: marked reduction”. Moreover, the “albuminuria (urinary albumin), time course” value in data set [1] (ADR+OA-NO2 vs ADR, day 3 and day 7 after ADR injection) is “ameliorates albuminuria; also recorded: These changes were observed at day 3 and maintained at day 7”. For the same molecule, in data set [1] (ADR+OA-NO2 vs ADR, day 8 after ADR injection), the “tubulointerstitial lesion (TILI)” value was “ameliorates”. Besides, in data set [1] (OA-NO2 in ADR mice), the “renal expression of IL-1β (qRT-PCR)” value is on record as “suppressed”, the “renal expression of MCP-1 (qRT-PCR)” value is “suppressed” and the “renal expression of TNF-α (qRT-PCR)” value is listed as “suppressed”. Also, in data set [1] (OA-NO2 pretreatment in ADR mice, P<0.05), the “renal WT1 protein (immunoblotting)” value is “prevented the downregulation”. In addition, the “renal desmin mRNA (qRT-PCR)” value in data set [1] (OA-NO2 treatment in ADR mice) is recorded as “prevented this increase”. Moreover, in data set [1] (setting [8]), the “renal TGF-β mRNA expression” value was “dramatic suppression” and the “renal collagen III mRNA expression” value is recorded as “dramatic suppression”. Also, in data set [1] (setting [9]), the “renal fibronectin (FN) expression” value is listed as “prevented the up-regulation” and the “renal α-SMA expression” value is “prevented the up-regulation”. In data set [1] (OA-NO2 treatment vs ADR mice), the “kidney TBARS” value is reported as “trend of reduction of TBARS levels in response to OA-NO2 treatment but this did not reach a statistical significance”, the “plasma TBARS” value is on record as “markedly attenuated” and the “urinary TBARS” value is given as “markedly attenuated”.
